According to paper PMC8667925, “New 1,2,4-oxadiazole derivatives with positive mGlu4 receptor modulation activity and antipsychotic-like properties” (Journal of Enzyme Inhibition and Medicinal Chemistry, 2021):
“Also recorded” adds a separate entry of the source.

Legend:
[1] = tested on: Albino Swiss mice; test: modified stress-induced hyperthermia (SIH) in singly housed mice; assay type: in vivo
Procedure: (§1) The compounds were dissolved in a small amount of 100% EtOH and then adjusted with 20% cyclodextrin, and the pH was adjusted to 6.0. The investigated compounds were administered intraperitoneally (i.p.) 60 min before the behavioural test. Control drugs i.e. diazepam, clozapine and imipramine (Sigma–Aldrich, St. Louis, USA), were administered i.p. 60 min before the behavioural test. Cyclodextrin (20%) was used as a vehicle. All solutions were prepared immediately prior to the experiments and were administered at a constant volume of 10 ml/kg.
The procedure for modified stress-induced hyperthermia was adapted from Van der Heyden[93] and based on the procedure introduced by Borsini[94]. Each experimental group consisted of eight to ten animals. The animals were housed individually in a 26 × 21 × 14 cm Macolon cage 24 h before testing. For this assay, the body temperature was measured for each mouse at t = 0 min (T1) and t = +15 min (T2). Albino Swiss mice were placed into a new cage immediately following T1, with the difference in temperature (T2−T1) used as the measure of stress-induced hyperthermia. […] A comparison between T1 in vehicle-treated mice and those administered the test compound was used to determine whether the agent affects body temperature alone. Diazepam (5 mg/kg) was used as the positive control. The rectal temperature was measured to the nearest 0.1 °C with a Physitemp Theralert thermometer, TH-5, Clifton NJ, USA, with the temperature sensor for mice, Type T, Copper-Constantan Thermocouple, Braintree Scientific Inc. The lubricated thermistor probe (2 mm diameter) was inserted 20 mm into the rectum. The mouse was held at the base of the tail during this determination, and the thermistor probe was left in place until a constant reading was obtained for 15 s. The effects of the investigated compounds on the SIH response were investigated after administration of the compounds at doses of 5, 10 and 20 mg/kg.

[2] = target: T1, mGlu4 receptor (Homo sapiens, UniProt Q14833); test: forskolin-stimulated cAMP assay, PAM mode (EC20 of L-Glu), T-REx 293 cells; assay type: cell-based; settings: for EC50 / Emax / mGlu4 receptor PAM activity: PAM mode; for EC50: EC20 (3 µM) L-Glu, T-REx 293 cells expressing human mGlu4 receptor; for EC50 / Emax / Fold shift of L-Glu dose-response curve: SEM where given; for Emax: T-REx-293, read-out: GluMax; for Emax / mGlu4 receptor PAM activity: human mGlu4; for Fold shift of L-Glu dose-response curve: in the presence of 10 µM of compound
T1 construct: mGlu4 receptor NM_000841, mGlu7 receptor NM_000844.2, and mGlu8 receptor NM_000845; expressed in transfected cells; host or cells: T-REx 293
T1 sequence (Q14833 33-912): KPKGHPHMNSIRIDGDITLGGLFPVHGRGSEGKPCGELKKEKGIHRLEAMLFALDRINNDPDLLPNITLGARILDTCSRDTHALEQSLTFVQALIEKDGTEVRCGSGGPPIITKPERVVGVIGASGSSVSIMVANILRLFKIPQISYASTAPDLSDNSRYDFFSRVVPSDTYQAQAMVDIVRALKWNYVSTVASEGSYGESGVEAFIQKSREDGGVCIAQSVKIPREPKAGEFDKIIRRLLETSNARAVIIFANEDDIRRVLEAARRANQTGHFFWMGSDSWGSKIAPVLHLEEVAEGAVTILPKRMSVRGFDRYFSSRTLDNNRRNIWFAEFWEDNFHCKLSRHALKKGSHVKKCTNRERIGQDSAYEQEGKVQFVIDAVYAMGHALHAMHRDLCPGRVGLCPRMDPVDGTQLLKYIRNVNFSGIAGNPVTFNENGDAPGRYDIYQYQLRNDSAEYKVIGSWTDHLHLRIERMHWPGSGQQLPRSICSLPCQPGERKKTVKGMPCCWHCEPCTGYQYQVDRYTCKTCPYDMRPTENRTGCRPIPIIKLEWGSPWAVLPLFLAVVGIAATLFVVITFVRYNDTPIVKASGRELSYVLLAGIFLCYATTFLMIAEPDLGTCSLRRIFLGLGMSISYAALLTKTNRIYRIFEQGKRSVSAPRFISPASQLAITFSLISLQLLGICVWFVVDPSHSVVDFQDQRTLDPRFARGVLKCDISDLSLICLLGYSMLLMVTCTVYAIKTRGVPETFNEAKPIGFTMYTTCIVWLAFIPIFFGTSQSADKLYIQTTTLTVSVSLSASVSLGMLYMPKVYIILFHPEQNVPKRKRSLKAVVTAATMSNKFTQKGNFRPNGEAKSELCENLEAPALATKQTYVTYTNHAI
Procedure: The activity of the compounds was assessed in vitro in a forskolin-stimulated cAMP assay in T-REx 293 cells expressing human mGlu4 receptors in the presence of an EC20 concentration of L-Glu; a PAM was identified if it potentiated cAMP inhibition by the Gi/o-dependent pathway of mGlu4 receptor activation; i.e. if it was able to produce a leftward shift in the potency of the endogenous agonist.
Determination of the intracellular cAMP through a homogeneous time-resolved fluorescence (HTRF) cAMP dynamic 2 kit from Cisbio (Codolet, France) was described previously by Chruścicka et al.[91]. Briefly, cells were grown in DMEM supplemented with 10% foetal bovine serum (FBS) (tetracycline free). Forty-eight hours before the experiments, mGlu receptor expression was induced by the addition of 0.75 µg/mL tetracycline. Twenty hours before the experiment, FBS and L-Glu were removed from the medium. Thereafter, the cells were scraped and centrifuged. A cell pellet was suspended in Hanks-HEPES (130 mM NaCl, 5.4 mM KCl, 1.8 mM CaCl2, 0.8 mM MgSO4, 0.9 mM NaH2PO4, 20 mM HEPES, and 3.25 mM glucose; pH 7.4). Then, the cell suspension was incubated in the presence of 10 µM forskolin (or 3 µM forskolin for mGlu7 receptor), the agonist L-glutamate and a compound for 5 min. Next, 10 µl of the cell suspension was mixed with 5 µl of cAMP-d2 conjugate and 5 µL of anti-cAMP cryptate conjugate. After 1 h of incubation at rt, the fluorescence at 620 nm and 665 nm was read (Tecan Infinite M1000). The results were calculated as the 665 nm/620 nm ratio multiplied by 10^4. Each sample was prepared in triplicate.
Statistical calculations were performed using GraphPad Prism 5.04 software (GraphPad Software, La Jolla, CA, USA). The curves were fitted to a 3-parametric logistic equation, allowing for the determination of EC50 values. Each data point was analysed in triplicate.

[3] = tested on: Albino Swiss mice; test: DOI-induced head twitch test (HTR); assay type: in vivo; settings: over the doses 2.5, 5 and 10 mg/kg i.p.; DOI 2.5 mg/kg i.p.
Procedure: as §1
The experiments were performed according to the procedure described in our previous studies[75]^,[80]. Briefly, to habituate mice to the experimental environment, each animal was transferred to a 12 cm (diameter) × 20 cm (height) glass cage lined with sawdust 30 min before treatment. Test compounds were administered intraperitoneally (i.p.) at doses of 2.5, 5, and 10 mg/kg body weight 60 min before the test was performed. The head twitch response (HTR) in mice was induced by DOI (2.5 mg/kg, i.p.). Immediately after treatment, the number of head twitches was counted during a 20 min session. Haloperidol and clozapine were used as the reference compounds at active doses of 0.2 and 5 mg/kg, respectively.

CN1C(=O)CN=C(c2ccccc2)c2cc(Cl)ccc21 [diazepam, reference compound]
effect on SIH response ([1]; 5 mg/kg i.p., 60 min before test): significantly reduced SIH

O=C(Nc1ccc(-c2noc(-c3ccccc3)n2)c(F)c1)c1ccccn1 [Compound 55]
EC50 [2]: 2560 nM
Emax [2]: 127%
Fold shift of L-Glu dose-response curve [2]: 3.0

COc1cc(NC(=O)c2ncc(Cl)cc2F)ccc1-c1noc(-c2ccccc2Cl)n1 [Compound 40]
mGlu4 receptor PAM activity [2]: did not potentiate cAMP inhibition

COc1ccccc1-c1nc(-c2ccc(NC(=O)c3ccccn3)cc2Cl)no1 [Compound 54]
EC50 [2]: 750 nM
Emax [2]: 111%
Fold shift of L-Glu dose-response curve [2]: 2.2

COc1cc(NC(=O)c2ccccn2)ccc1-c1noc(-c2ccccc2)n1 [Compound 33]
EC50 [2]: 1830 nM
Emax [2]: 130%
Fold shift of L-Glu dose-response curve [2]: 5.3

COc1cc(NC(=O)c2cccc(F)n2)ccc1-c1noc(-c2ccccc2F)n1 [Compound 47]
EC50 [2]: 890 nM
Emax [2]: 121%
Fold shift of L-Glu dose-response curve [2]: 6.9

O=C(Nc1ccc(-c2noc(-c3ccccc3Cl)n2)c(Cl)c1)c1cccc(Cl)n1 [Compound 51]
mGlu4 receptor PAM activity [2]: unable to modulate mGlu4 receptor activity

COc1cc(NC(=O)c2ccccn2)ccc1-c1noc(-c2ccc(F)cc2Cl)n1 [Compound 38]
EC50 [2]: 1980 nM
Emax [2]: 124%
Fold shift of L-Glu dose-response curve [2]: 4.6

O=C(Nc1ccc(-c2noc(-c3ccccc3Cl)n2)cc1)c1ccccn1 [Compound 17d]
EC50 [2]: 3700 nM
Emax [2]: 116%
Fold shift of L-Glu dose-response curve [2]: 1.8

COc1cc(NC(=O)c2nccs2)ccc1-c1noc(-c2ccccc2Cl)n1 [Compound 46]
EC50 [2]: 2200 nM
Emax [2]: 126%
Fold shift of L-Glu dose-response curve [2]: 3.6

COc1cc(NC(=O)c2ccccn2)ccc1-c1noc(-c2ccc(Cl)cc2)n1 [Compound 36]
EC50 [2]: 1980 nM
Emax [2]: 157%
Fold shift of L-Glu dose-response curve [2]: 2.0

O=C(Nc1ccc(-c2noc(-c3ccccc3Cl)n2)c(Cl)c1)c1cccc(F)n1 [Compound 50]
mGlu4 receptor PAM activity [2]: unable to modulate mGlu4 receptor activity

COc1cc(NC(=O)c2ccncn2)ccc1-c1noc(-c2ccccc2Cl)n1 [Compound 45]
EC50 [2]: 3100 nM
Emax [2]: 118%
Fold shift of L-Glu dose-response curve [2]: 3.1

COc1ccc(-c2nc(-c3ccc(NC(=O)c4cccs4)cc3)no2)cc1 [Compound 17c]
mGlu4 receptor PAM activity [2]: not tolerated

COc1cc(NC(=O)c2nc(Cl)ccc2Cl)ccc1-c1noc(-c2ccccc2F)n1 [Compound 48]
mGlu4 receptor PAM activity [2]: did not potentiate cAMP inhibition

O=C(Nc1ccc(-c2noc(-c3ccc(F)cc3Cl)n2)c(Cl)c1)c1ccccn1 [Compound 53]
EC50 [2]: 1350 nM
Emax [2]: 119%
Fold shift of L-Glu dose-response curve [2]: 2.1

COc1cc(NC(=O)c2cccc(Cl)n2)ccc1-c1noc(-c2ccccc2Cl)n1 [Compound 41]
EC50 [2]: 1920 nM
Emax [2]: 115%
Fold shift of L-Glu dose-response curve [2]: 4.1

COc1cc(NC(=O)c2ccccn2)ccc1-c1noc(-c2cccc(Cl)c2)n1 [Compound 35]
EC50 [2]: 5300 nM
Emax [2]: 145%
Fold shift of L-Glu dose-response curve [2]: 2.2

Cc1cc(NC(=O)c2ccccn2)ccc1-c1noc(-c2ccccc2)n1 [Compound 61]
EC50 [2]: 1650 nM
Emax [2]: 128%
Fold shift of L-Glu dose-response curve [2]: 5.1

COc1ccc(Cl)c(C(=O)Nc2ccc(-c3noc(-c4ccccc4Cl)n3)c(OC)c2)n1 [Compound 42]
effect on SIH response ([1]; over the doses 5, 10 and 20 mg/kg i.p.): None of the administered doses of compound 42 statistically affected the SIH; also recorded: failed to alter SIH
mGlu4 receptor PAM activity [2]: did not potentiate cAMP inhibition
effect on DOI-induced HTR [3]: failed to alter SIH and block DOI-induced HTR

COc1cc(NC(=O)c2cc(F)cc(F)n2)ccc1-c1noc(-c2ccccc2Cl)n1 [Compound 43]
EC50 [2]: 2500 nM
Emax [2]: 134%
Fold shift of L-Glu dose-response curve [2]: 5.0

O=C(Nc1ccc(-c2noc(-c3ccccc3)n2)c(C(F)(F)F)c1)c1ccccn1 [Compound 59]
EC50 [2]: 740 nM
Emax [2]: 150%
Fold shift of L-Glu dose-response curve [2]: 7.6
